Results: US20150284674A1, “CAMPYLOBACTER BACTERIA AND DETECTION” (priority 2012, published 2015)
In brackets after ≈: the same amount, converted by molar mass. Entries after “also recorded” stand apart in the source; their conditions may differ.

Assays:
[1] = system: novel campylobacter isolates; assay: Disc diffusion susceptibility to nalidixic acid and cephalothin (30 μg discs); type: cell-based; conditions: for susceptibility / resistance of the novel Campylobacter strains, in words: disc diffusion tests, 30 μg disc, novel Campylobacter strains overall; for Susceptibility to (30 μg disc): disc diffusion; for resistance (share of strains positive): taxon A: Campylobacter novel (n=23); on Susceptibility to (30 μg disc): key: S, susceptible; R, resistant
[2] = system: C. avium sp. Nov; conditions: taxon 1: C. avium sp. Nov; cited from earlier work
[3] = system: C. canadensis; conditions: taxon 2: C. canadensis; cited from earlier work
[4] = system: C. coli; conditions: taxon 3: C. coli; cited from earlier work
[5] = system: C. concisus; conditions: taxon 4: C. concisus; cited from earlier work
[6] = system: C. cuniculurom; conditions: taxon 5: C. cuniculurom; cited from earlier work
[7] = system: C. curvus; conditions: taxon 6: C. curvus; cited from earlier work
[8] = system: C. fetus subsp. fetus; conditions: taxon 7: C. fetus subsp. fetus; cited from earlier work
[9] = system: C. fetus subsp. venerealis; conditions: taxon 8: C. fetus subsp. venerealis; cited from earlier work
[10] = system: C. gracilis; conditions: taxon 9: C. gracilis; cited from earlier work
[11] = system: C. helveticus; conditions: taxon 10: C. helveticus; cited from earlier work
[12] = system: C. hominus; conditions: taxon 11: C. hominus; cited from earlier work
[13] = system: C. hyointestinalis subsp. hyointestinalis; conditions: taxon 12: C. hyointestinalis subsp. hyointestinalis; cited from earlier work
[14] = system: C. hyointestinalis subsp. lawsonii; conditions: taxon 13: C. hyointestinalis subsp. lawsonii; cited from earlier work
[15] = system: C. insulaenigrae; conditions: taxon 14: C. insulaenigrae; cited from earlier work
[16] = system: C. jejuni subsp. Doylei; conditions: taxon 15: C. jejuni subsp. Doylei; cited from earlier work
[17] = system: C. jejuni subsp. Jejuni; conditions: taxon 16: C. jejuni subsp. Jejuni; cited from earlier work
[18] = system: C. lari; conditions: taxon 18: C. lari; cited from earlier work
[19] = system: C. mucosalis; conditions: taxon 19: C. mucosalis; cited from earlier work
[20] = system: C. rectus; conditions: taxon 20: C. rectus; cited from earlier work
[21] = system: C. showae; conditions: taxon 21: C. showae; cited from earlier work
[22] = system: C. sputorum; conditions: taxon 22: C. sputorum; cited from earlier work
[23] = system: C. upsaliensis; conditions: taxon 23: C. upsaliensis; cited from earlier work
[24] = system: Campylobacter novel strains; assay: Antimicrobial susceptibility testing by agar dilution method (MIC); conditions: Campylobacter;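 further: agar dilution MIC on HBA, used in place of the BSAC-recommended Iso-sensitest agar, across a panel of 14 antimicrobials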
Experimental: Antimicrobial susceptibility testing was performed using the agar dilution method for the Campylobacter novel strains against 14 antimicrobials. […] As the strains were unable to grow on the Iso-sensitest agar (ISA) recommended by the BSAC guidelines, HBA (Table 1) was used as an alternative media.

[25] = system: C. lanienae; conditions: taxon 17: C. lanienae; cited from earlier work

**Q.** Which “susceptibility / resistance of the novel Campylobacter strains, in words” value [1] does the source give for CC(=O)OCC1=C(C(=O)O)N2C(=O)[C@@H](NC(=O)Cc3cccs3)[C@H]2SC1 [Cephalothin] here?
**A.** variable resistance; also recorded: some were sensitive

**Q.** What about the “Susceptibility to (30 μg disc)” value ([1]; strain Farm 1 2009/1) of the same molecule?
**A.** R

**Q.** And the “Susceptibility to (30 μg disc)” value ([1]; strain Farm 1 2009/2)?
**A.** R

**Q.** And the “Susceptibility to (30 μg disc)” value ([1]; strain Farm 1 2011/1)?
**A.** R

**Q.** What about the “Susceptibility to (30 μg disc)” value ([1]; strain Farm 1 2011/2) of the same molecule?
**A.** R

**Q.** And the “Susceptibility to (30 μg disc)” value ([1]; strain Farm 1 2011/3)?
**A.** R

**Q.** And the “Susceptibility to (30 μg disc)” value ([1]; strain Farm 1 2011/4)?
**A.** R

**Q.** What about the “Susceptibility to (30 μg disc)” value ([1]; strain Farm 1 2011/5) of the same molecule?
**A.** R

**Q.** And the “Susceptibility to (30 μg disc)” value ([1]; strain Farm 1 2011/6)?
**A.** R

**Q.** What about the “Susceptibility to (30 μg disc)” value ([1]; strain Farm 2 2011/1) of the same molecule?
**A.** S

**Q.** And the “Susceptibility to (30 μg disc)” value ([1]; strain Farm 2 2011/2)?
**A.** S

**Q.** And the “Susceptibility to (30 μg disc)” value ([1]; strain Farm 2 2011/3)?
**A.** S

**Q.** And the “Susceptibility to (30 μg disc)” value ([1]; strain Farm 2 2011/4)?
**A.** S

**Q.** What about the “Susceptibility to (30 μg disc)” value ([1]; strain Farm 3 2011/1) of the same molecule?
**A.** S

**Q.** What about the “Susceptibility to (30 μg disc)” value ([1]; strain Farm 3 2011/2) of the same molecule?
**A.** S

**Q.** And the “Susceptibility to (30 μg disc)” value ([1]; strain Farm 3 2011/3)?
**A.** S

**Q.** What about the “Susceptibility to (30 μg disc)” value ([1]; strain Farm 4 2011/1) of the same molecule?
**A.** S

**Q.** And the “Susceptibility to (30 μg disc)” value ([1]; strain Farm 4 2011/2)?
**A.** S

**Q.** What about the “Susceptibility to (30 μg disc)” value ([1]; strain Farm 4 2011/3) of the same molecule?
**A.** S

**Q.** What about the “resistance (share of strains positive)” value [1] of the same molecule?
**A.** V (V, 26-74% of strains positive)

**Q.** What about the “resistance (share of strains positive)” value [2] of the same molecule?
**A.** + (+, 90-100% of strains positive)

**Q.** What about the “resistance (share of strains positive)” value [3] of the same molecule?
**A.** − (−, 0-10% of strains positive)

**Q.** And the “resistance (share of strains positive)” value [4]?
**A.** + (+, 90-100% of strains positive)

**Q.** What about the “resistance (share of strains positive)” value [5] of the same molecule?
**A.** − (−, 0-10% of strains positive)

**Q.** What about the “resistance (share of strains positive)” value [6] of the same molecule?
**A.** (+) ((+), 75-89% strains positive)

**Q.** And the “resistance (share of strains positive)” value [7]?
**A.** − (−, 0-10% of strains positive)

**Q.** What about the “resistance (share of strains positive)” value [8] of the same molecule?
**A.** − (−, 0-10% of strains positive)

**Q.** And the “resistance (share of strains positive)” value [9]?
**A.** − (−, 0-10% of strains positive)

**Q.** And the “resistance (share of strains positive)” value [10]?
**A.** − (−, 0-10% of strains positive)

**Q.** What about the “resistance (share of strains positive)” value [11] of the same molecule?
**A.** − (−, 0-10% of strains positive)

**Q.** And the “resistance (share of strains positive)” value [12]?
**A.** − (−, 0-10% of strains positive)

**Q.** And the “resistance (share of strains positive)” value [13]?
**A.** (−) ((−), 11-25% of strains positive)

**Q.** What about the “resistance (share of strains positive)” value [14] of the same molecule?
**A.** − (−, 0-10% of strains positive)

**Q.** And the “resistance (share of strains positive)” value [15]?
**A.** + (+, 90-100% of strains positive)

**Q.** And the “resistance (share of strains positive)” value [16]?
**A.** − (−, 0-10% of strains positive)

**Q.** And the “resistance (share of strains positive)” value [17]?
**A.** + (+, 90-100% of strains positive)

**Q.** And the “resistance (share of strains positive)” value [18]?
**A.** + (+, 90-100% of strains positive)

**Q.** And the “resistance (share of strains positive)” value [19]?
**A.** − (−, 0-10% of strains positive)

**Q.** What about the “resistance (share of strains positive)” value [20] of the same molecule?
**A.** − (−, 0-10% of strains positive)

**Q.** What about the “resistance (share of strains positive)” value [21] of the same molecule?
**A.** − (−, 0-10% of strains positive)

**Q.** What about the “resistance (share of strains positive)” value [22] of the same molecule?
**A.** − (−, 0-10% of strains positive)

**Q.** And the “resistance (share of strains positive)” value [23]?
**A.** (−) ((−), 11-25% of strains positive)

**Q.** And the MIC50 [24]?
**A.** 32 µg/mL (≈ 80.7 µM)

**Q.** And the MIC90 [24]?
**A.** 32 µg/mL (≈ 80.7 µM)

**Q.** For CCn1cc(C(=O)O)c(=O)c2ccc(C)nc21 [Nalidixic acid], which “susceptibility / resistance of the novel Campylobacter strains, in words” value [1] is on record?
**A.** susceptible

**Q.** What about the “Susceptibility to (30 μg disc)” value ([1]; strain Farm 1 2009/1) of the same molecule?
**A.** S

**Q.** And the “Susceptibility to (30 μg disc)” value ([1]; strain Farm 1 2009/2)?
**A.** S

**Q.** What about the “Susceptibility to (30 μg disc)” value ([1]; strain Farm 1 2011/1) of the same molecule?
**A.** S

**Q.** What about the “Susceptibility to (30 μg disc)” value ([1]; strain Farm 1 2011/2) of the same molecule?
**A.** S

**Q.** What about the “Susceptibility to (30 μg disc)” value ([1]; strain Farm 1 2011/3) of the same molecule?
**A.** S

**Q.** And the “Susceptibility to (30 μg disc)” value ([1]; strain Farm 1 2011/4)?
**A.** S

**Q.** And the “Susceptibility to (30 μg disc)” value ([1]; strain Farm 1 2011/5)?
**A.** S

**Q.** And the “Susceptibility to (30 μg disc)” value ([1]; strain Farm 1 2011/6)?
**A.** S

**Q.** And the “Susceptibility to (30 μg disc)” value ([1]; strain Farm 2 2011/1)?
**A.** S

**Q.** What about the “Susceptibility to (30 μg disc)” value ([1]; strain Farm 2 2011/2) of the same molecule?
**A.** S

**Q.** What about the “Susceptibility to (30 μg disc)” value ([1]; strain Farm 2 2011/3) of the same molecule?
**A.** S

**Q.** And the “Susceptibility to (30 μg disc)” value ([1]; strain Farm 2 2011/4)?
**A.** S

**Q.** And the “Susceptibility to (30 μg disc)” value ([1]; strain Farm 3 2011/1)?
**A.** S

**Q.** And the “Susceptibility to (30 μg disc)” value ([1]; strain Farm 3 2011/2)?
**A.** S

**Q.** What about the “Susceptibility to (30 μg disc)” value ([1]; strain Farm 3 2011/3) of the same molecule?
**A.** S

**Q.** What about the “Susceptibility to (30 μg disc)” value ([1]; strain Farm 4 2011/1) of the same molecule?
**A.** S

**Q.** And the “Susceptibility to (30 μg disc)” value ([1]; strain Farm 4 2011/2)?
**A.** S

**Q.** And the “Susceptibility to (30 μg disc)” value ([1]; strain Farm 4 2011/3)?
**A.** S

**Q.** What about the “resistance (share of strains positive)” value [1] of the same molecule?
**A.** − (−, 0-10% of strains positive)

**Q.** And the “resistance (share of strains positive)” value [2]?
**A.** − (−, 0-10% of strains positive)

**Q.** What about the “resistance (share of strains positive)” value [3] of the same molecule?
**A.** V (V, 26-74% of strains positive)

**Q.** And the “resistance (share of strains positive)” value [4]?
**A.** − (−, 0-10% of strains positive)

**Q.** What about the “resistance (share of strains positive)” value [5] of the same molecule?
**A.** (+) ((+), 75-89% strains positive)

**Q.** And the “resistance (share of strains positive)” value [6]?
**A.** V (V, 26-74% of strains positive)

**Q.** What about the “resistance (share of strains positive)” value [7] of the same molecule?
**A.** + (+, 90-100% of strains positive)

**Q.** And the “resistance (share of strains positive)” value [8]?
**A.** + (+, 90-100% of strains positive)

**Q.** What about the “resistance (share of strains positive)” value [9] of the same molecule?
**A.** V (V, 26-74% of strains positive)

**Q.** What about the “resistance (share of strains positive)” value [10] of the same molecule?
**A.** V (V, 26-74% of strains positive)

**Q.** What about the “resistance (share of strains positive)” value [11] of the same molecule?
**A.** − (−, 0-10% of strains positive)

**Q.** What about the “resistance (share of strains positive)” value [12] of the same molecule?
**A.** V (V, 26-74% of strains positive)

**Q.** And the “resistance (share of strains positive)” value [13]?
**A.** + (+, 90-100% of strains positive)

**Q.** And the “resistance (share of strains positive)” value [14]?
**A.** + (+, 90-100% of strains positive)

**Q.** What about the “resistance (share of strains positive)” value [15] of the same molecule?
**A.** + (+, 90-100% of strains positive)

**Q.** And the “resistance (share of strains positive)” value [16]?
**A.** − (−, 0-10% of strains positive)

**Q.** And the “resistance (share of strains positive)” value [17]?
**A.** − (−, 0-10% of strains positive)

**Q.** And the “resistance (share of strains positive)” value [25]?
**A.** + (+, 90-100% of strains positive)

**Q.** What about the “resistance (share of strains positive)” value [18] of the same molecule?
**A.** V (V, 26-74% of strains positive)

**Q.** And the “resistance (share of strains positive)” value [19]?
**A.** (+) ((+), 75-89% strains positive)

**Q.** What about the “resistance (share of strains positive)” value [20] of the same molecule?
**A.** (+) ((+), 75-89% strains positive)

**Q.** What about the “resistance (share of strains positive)” value [21] of the same molecule?
**A.** − (−, 0-10% of strains positive)

**Q.** What about the “resistance (share of strains positive)” value [22] of the same molecule?
**A.** (+) ((+), 75-89% strains positive)

**Q.** And the “resistance (share of strains positive)” value [23]?
**A.** − (−, 0-10% of strains positive)

**Q.** And the MIC50 [24]?
**A.** 4 µg/mL (≈ 17.2 µM)

**Q.** What about the MIC90 [24] of the same molecule?
**A.** 8 µg/mL (≈ 34.4 µM)
